# Data as given in patent US10640507B2, “PBD antibacterial agents” (KING'S COLLEGE LONDON, priority 2015, dated 2020).
# Where two headings read alike, the source gives them in different places.
# Assays:
# Assay type in all cases: cell-based
# [1] = tested on: Psueudomonas GH12; test: General MIC protocol, Gram negative; settings: Pseudomonas
# Method: General Minimum Inhibitory Concentration (MIC) Protocol
# 1. Grow up cultures of bacterial strains to be tested overnight.
# 2. Dilute down overnight cultures to concentration of 1×10^6 bacteria/ml (OD0.01) in Tryptic soy broth (TSB).
# 3. Add 100 μl of TSB media to column 2-column 12 in 96 well plate (keeping column 1 clear).
# 4. Make up compound to a concentration of 64 μg/ml in water (or alternatively to twice the chosen maximum concentration to be tested).
# 5. Add 100 μl of antibiotic solution to the 1st and 2nd columns.
# 6. Using a multichannel pipette take 100 μl from the 2nd column wells and pipette into 3rd column wells and repeat down the 96 well plate (remembering to include controls i.e. uninfected media and media with no antibiotic).
# 7. To each well (except uninfected control row H) add 100 μl of bacterially infected media at a concentration of 1×10^6/ml.
# 8. This dilutes down the concentration of the antibiotic by half (top dose is therefore 32 μg/ml in column 1) and also gives you a starting bacterial concentration of 5×10^5/ml.
# 9. Wrap plate with parafilm to prevent evaporation.
# 10. Leave at desired temperature (37° C. unless specified elsewhere) for 20 hours.
# 11. Next day check plates for growth and measure optical density (i.e. absorbance) at a wavelength of 600 nm (OD600).
# An example of such a plate is shown in FIG. 1 where column A represents wells that receive the top dose 100 μl; column B represents wells that receive the top dose 100 μl+100 μl TSB; and column C represents wells that receive 100 μl TSB. Row H which is marked by a box labelled D represents a blank where the cells receive no bacteria.
# The activity of the compound designated PP-A148 was tested against an extended panel of Klebsiella and Pseudomonas Gram-negative bacterial strains that have proven drug resistant difficult to treat. […] The minimum inhibitory concentration (MIC) was measured using the general MIC protocol given above.
# [2] = tested on: A. baumannii - NCTC13424; settings: drug at 4×MIC
# Method: (§1) 1. Grow bacteria overnight.
# (§2) 2. Subculture into an autoclaved conical flask containing 10 ml of TSB to an OD of 0.01 (˜1×10^7 Cfu/ml for KP-M6).
# (§3) 4. Take aliquots (100 μl) at timepoints (0, 1, 2, 4, 6, 24 hours) and carry out a serial dilution in PBS (to remove drug and to dilute bacteria to countable numbers).
# (§4) 5. Use the serial dilution to perform a Miles Misra—i.e. Add 3×10 μl spots of each dilution onto an agar plate. Incubate overnight and count colonies on spots in the morning.
# (§5) 6. Control: Subculture bacteria alongside samples but with no antibiotic added. Take aliquots from this at every time point (0, 1, 2, 4, 6, 24 hours) and perform Miles Misra on these too (as detailed in points 4 and 5 above).
# (§6) 7. After the first experiment, if the counts seen on Miles-Misra were zero, total viable counts were determined by spreading 200 μl in a streak down the centre of a TSB agar plate, waiting for the liquid to be absorbed and then spreading over the plate and checking for growth inhibition at the sight of the original streak.
# (§7) 8. The compound is considered bactericidal if the inoculum was reduced >3 log10 CFU/ml and bacteriostatic if inoculum was reduced by 0-3 log10 CFU/ml.
# (§8) Three measurements were taken for each compound at each time point. These measurements were averaged and the standard deviation was also calculated.
# [3] = tested on: K. pneumonia - NCTC 13368; settings: drug at 4×MIC
# Method: as §1, §2, §3, §4, §5, §6, §7, §8
# [4] = tested on: K. pneumonia - NCTC 13438; settings: drug at 4×MIC
# Method: as §1, §2, §3, §4, §5, §6, §7, §8
# [5] = tested on: A. baumannii - AYE; settings: drug at 4×MIC
# Method: as §1, §2, §3, §4, §5, §6, §7, §8
smiles,measurement,setting,value
"O=C(O)c1cn(C2CC2)c2cc(N3CCNCC3)c(F)cc2c1=O [CIP, ciprofloxacin, reference compound]",MIC,[1],16 µg/mL
same,Average (CFU/mL),[2]; time-point 1 hours,2.57e+06 CFU/mL
same,n = 1 (CFU/mL),[2]; time-point 1 hours,2.5e+06 CFU/mL
same,n = 2 (CFU/ml),[2]; time-point 1 hours,2.2e+06 CFU/ml
same,n = 3 (CFU/mL),[2]; time-point 1 hours,3e+06 CFU/mL
same,Average (CFU/mL),[2]; time-point 2 hours,42000 CFU/mL
same,n = 1 (CFU/mL),[2]; time-point 2 hours,80000 CFU/mL
same,n = 2 (CFU/ml),[2]; time-point 2 hours,21000 CFU/ml
same,n = 3 (CFU/mL),[2]; time-point 2 hours,25000 CFU/mL
same,Average (CFU/mL),[2]; time-point 4 hours,7330 CFU/mL
same,n = 1 (CFU/mL),[2]; time-point 4 hours,12000 CFU/mL
same,n = 2 (CFU/ml),[2]; time-point 4 hours,1000 CFU/ml
same,n = 3 (CFU/mL),[2]; time-point 4 hours,9000 CFU/mL
same,Average (CFU/mL),[2]; time-point 6 hours,11200 CFU/mL
same,n = 1 (CFU/mL),[2]; time-point 6 hours,10000 CFU/mL
same,n = 2 (CFU/ml),[2]; time-point 6 hours,14300 CFU/ml
same,n = 3 (CFU/mL),[2]; time-point 6 hours,9200 CFU/mL
same,n = 1 (CFU/mL),[2]; time-point 24 hours,3.6e+08 CFU/mL
same,n = 2 (CFU/ml),[2]; time-point 24 hours,1.9e+09 CFU/ml
same,n = 3 (CFU/mL),[2]; time-point 24 hours,2.75e+09 CFU/mL
same,Average (CFU/ml),[3]; time-point 1 hours,2.38e+06 CFU/ml
same,n = 2 (CFU/ml),[3]; time-point 1 hours,110000 CFU/ml
same,n = 3 (CFU/ml),[3]; time-point 1 hours,28000 CFU/ml
same,viable count,[3]; time-point 1 hours,7e+06 CFU/mL
same,Average (CFU/ml),[3]; time-point 2 hours,118000 CFU/ml
same,n = 2 (CFU/ml),[3]; time-point 2 hours,650 CFU/ml
same,n = 3 (CFU/ml),[3]; time-point 2 hours,2500 CFU/ml
same,viable count,[3]; time-point 2 hours,350000 CFU/mL
same,Average (CFU/ml),[3]; time-point 4 hours,75.3 CFU/ml
same,n = 2 (CFU/ml),[3]; time-point 4 hours,55 CFU/ml
same,n = 3 (CFU/ml),[3]; time-point 4 hours,170 CFU/ml
same,viable count,[3]; time-point 4 hours,0 CFU/mL
same,Average (CFU/ml),[3]; time-point 6 hours,65.3 CFU/ml
same,n = 2 (CFU/ml),[3]; time-point 6 hours,80 CFU/ml
same,n = 3 (CFU/ml),[3]; time-point 6 hours,115 CFU/ml
same,viable count,[3]; time-point 6 hours,0 CFU/mL
same,Average (CFU/ml),[3]; time-point 24 hours,0 CFU/ml
same,n = 2 (CFU/ml),[3]; time-point 24 hours,0 CFU/ml
same,n = 3 (CFU/ml),[3]; time-point 24 hours,0 CFU/ml
same,viable count,[3]; time-point 24 hours,0 CFU/mL
same,n = 1 (CFU/ml),[4]; time-point 1 hours,1e+07 CFU/ml
same,n = 2 (CFU/ml),[4]; time-point 1 hours,9e+06 CFU/ml
same,n = 1 (CFU/ml),[4]; time-point 2 hours,3.8e+07 CFU/ml
same,n = 2 (CFU/ml),[4]; time-point 2 hours,3.7e+07 CFU/ml
same,Average (Log CFU/ml),[4]; time-point 4 hours,1.17E+09 Log CFU/ml
same,n = 1 (CFU/ml),[4]; time-point 4 hours,1.5e+09 CFU/ml
same,n = 2 (CFU/ml),[4]; time-point 4 hours,1e+09 CFU/ml
same,Average (Log CFU/ml),[4]; time-point 6 hours,3.07E+09 Log CFU/ml
same,n = 1 (CFU/ml),[4]; time-point 6 hours,3.9e+09 CFU/ml
same,n = 2 (CFU/ml),[4]; time-point 6 hours,2.5e+09 CFU/ml
same,Average (Log CFU/ml),[4]; time-point 24 hours,6.23E+09 Log CFU/ml
same,n = 1 (CFU/ml),[4]; time-point 24 hours,6e+09 CFU/ml
same,n = 2 (CFU/ml),[4]; time-point 24 hours,6.7e+09 CFU/ml
same,Average (CFU/ml),[5]; time-point 1 hours,2e+06 CFU/ml
same,n = 1 (CFU/ml),[5]; time-point 1 hours,2.1e+06 CFU/ml
same,n = 2 (CFU/ml),[5]; time-point 1 hours,1.9e+06 CFU/ml
same,Average (CFU/ml),[5]; time-point 2 hours,900000 CFU/ml
same,n = 1 (CFU/ml),[5]; time-point 2 hours,1.2e+06 CFU/ml
same,n = 2 (CFU/ml),[5]; time-point 2 hours,600000 CFU/ml
same,Average (CFU/ml),[5]; time-point 4 hours,750000 CFU/ml
same,n = 1 (CFU/ml),[5]; time-point 4 hours,800000 CFU/ml
same,n = 2 (CFU/ml),[5]; time-point 4 hours,700000 CFU/ml
same,Average (CFU/ml),[5]; time-point 6 hours,2.1e+06 CFU/ml
same,n = 1 (CFU/ml),[5]; time-point 6 hours,2e+06 CFU/ml
same,n = 2 (CFU/ml),[5]; time-point 6 hours,2.2e+06 CFU/ml
same,n = 1 (CFU/ml),[5]; time-point 24 hours,7e+08 CFU/ml
same,n = 2 (CFU/ml),[5]; time-point 24 hours,1.4e+08 CFU/ml
"COc1cc2c(cc1OCCCC(=O)Nc1cc(C(=O)Nc3ccc4oc(C(=O)N5CCSCC5)cc4c3)n(C)c1)N=C[C@@H]1CCCN1C2=O [PP-A148, (S)-4-(4-((7-methoxy-5-oxo-2,3,5,11a-tetrahydro-1H-benzo-[e]pyrrolo[1,2-a][1,4]diazepin-8-yl)oxy)butanamido)-1-methyl-N-(2-(thiomorpholine-4-carbonyl)benzofuran-5-yl)-1H-pyrrole-2-carboxamide]",MIC,[1],> 128 µg/mL
